Results as given in patent publication US8765786B2, “1-substituted indazole derivative” (Dainippon Sumitomo Pharma Co., Ltd., priority 2012, dated 2014).
Values belong to the molecule of their own block, whether it stands above or below them.

Columns and labels:
[1] = Measurement of protein binding ratio (equilibrium dialysis); type: in vitro ADME, human
[2] = Measurement of brain penetration; type: in vivo; details: LC-MS/MS of plasma and brain homogenates; for Kp: read-out: concentration ratio of the brain to the plasma
Excerpt: The plasma and brain homogenates were deproteinized with methanol and then centrifuged. The supernatant was filtered, and the obtained sample was quantified with LC-MS/MS to calculate the concentration of the plasma and brain.

Slc: ddY mice = test: Novel object recognition test in mice (mORT); type: in vivo; details: for minimum effective dose: administered prior to 1st trial, 2nd trial 24 hours later; for efficacy at higher doses: dose of 0.3 mg/kg, 1.0 mg/kg or 3 mg/kg
Experimental: Slc: ddY mice (25 g to 30 g, male, Japan SLC) can be used in the novel object recognition test wherein the interval between the 1st trial (training) and the 2nd trial (test) correlates with the memory loss for the objects used in the 1st trial, and a significant memory-loss is observed when the 2nd trial is performed 24 hours after the 1st trial. According to the test mechanism, the present compounds were administered prior to the 1st trial, and the enhancement effect on memory in the 2nd trial was evaluated.

Slc: Wistar rats = test: Y-shaped maze test in rats, scopolamine-induced cognitive impairment; type: in vivo; details: 0.6 mg/kg scopolamine HBr s.c.
Experimental: In Y-maze test, 0.6 mg/kg scopolamine HBr (cat#S0929, Sigma Aldrich, Japan) can be subcutaneously administered to Slc: Wistar rats (280 g to 300 g, male, Japan SLC) to cause cognitive impairment and decrease the percentage of alternation behavior. According to the test mechanism, the present compounds were treated prior to the administration of scopolamine, and the improvement effect on cognitive impairment was evaluated.

Rat PK test = type: in vivo; details: plasma, rats, intravenous and oral administration
Experimental: The present compound was administered intravenously in saline solution or orally in methylcellulose solution to 7 weeks old rats, and their blood was collected according to the following schedule:
(intravenous administration) 5 minutes, 15 minutes, 30 minutes, 1 hour, 2 hours, 4 hours, 6 hours and 24 hours after the administration
(oral administration) 15 minutes, 30 minutes, 1 hour, 2 hours, 4 hours, 6 hours and 24 hours after the administration
The collected blood was centrifuged at 3000 rpm for 10 minutes in a refrigerated centrifuge set at 4° C. The obtained plasma was measured with a HPLC to give a time curve of plasma level, thereby calculating the pharmacokinetic parameters.

[3] = molecular target: T1, hERG (human ether-a-go-go) potassium current (Homo sapiens, UniProt Q12809); test: hERG inhibition test (whole-cell patch clamp, QPatch HT, CHO cells); type: cell-based; details: room temperature
T1 construct: expressed in transfected cells; host or cells: CHO cells
T1 sequence (Q12809 whole entry): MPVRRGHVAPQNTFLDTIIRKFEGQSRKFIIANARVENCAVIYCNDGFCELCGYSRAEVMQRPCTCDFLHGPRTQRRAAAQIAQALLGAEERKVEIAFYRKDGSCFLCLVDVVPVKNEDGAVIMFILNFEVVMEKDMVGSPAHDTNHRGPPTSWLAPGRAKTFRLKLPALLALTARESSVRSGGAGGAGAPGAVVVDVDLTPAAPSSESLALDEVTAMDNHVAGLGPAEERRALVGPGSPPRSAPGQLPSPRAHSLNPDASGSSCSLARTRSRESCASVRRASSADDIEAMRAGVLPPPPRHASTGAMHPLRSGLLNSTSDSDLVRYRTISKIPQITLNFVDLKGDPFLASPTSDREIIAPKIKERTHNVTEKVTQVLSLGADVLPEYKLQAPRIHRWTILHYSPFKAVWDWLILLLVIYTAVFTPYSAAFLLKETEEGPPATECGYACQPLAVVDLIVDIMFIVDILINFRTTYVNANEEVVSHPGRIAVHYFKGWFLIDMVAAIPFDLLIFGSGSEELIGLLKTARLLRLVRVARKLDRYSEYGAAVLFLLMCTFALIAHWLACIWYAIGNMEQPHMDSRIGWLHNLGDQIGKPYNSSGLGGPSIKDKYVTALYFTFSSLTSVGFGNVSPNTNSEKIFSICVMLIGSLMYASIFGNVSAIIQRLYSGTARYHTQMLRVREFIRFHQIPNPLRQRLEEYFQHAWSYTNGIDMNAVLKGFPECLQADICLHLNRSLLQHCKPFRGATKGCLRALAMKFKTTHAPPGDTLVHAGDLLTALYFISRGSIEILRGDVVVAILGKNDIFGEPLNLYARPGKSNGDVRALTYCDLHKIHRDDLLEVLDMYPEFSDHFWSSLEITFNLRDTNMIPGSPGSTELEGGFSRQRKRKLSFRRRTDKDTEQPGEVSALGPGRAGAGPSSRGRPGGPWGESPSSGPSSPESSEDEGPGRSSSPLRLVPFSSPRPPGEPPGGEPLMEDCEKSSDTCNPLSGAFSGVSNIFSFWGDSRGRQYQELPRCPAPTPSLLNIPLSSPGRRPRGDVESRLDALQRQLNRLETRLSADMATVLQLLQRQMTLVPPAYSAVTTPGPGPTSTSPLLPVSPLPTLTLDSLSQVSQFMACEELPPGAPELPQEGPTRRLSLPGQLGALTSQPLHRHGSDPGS
Experimental: The hERG (human ether-a-go-go) potassium current in CHO cells which stably express hERG gene was recorded by whole-cell patch clamping technique using an automated patch clamp system, QPatch HT (Sophion Bioscience A/S). Inducing the hERG current, the membrane potential was held at −80 mV in voltage clamp mode, and then depolarized to −50 mV for 20 msec and then +20 mV for 5 sec. Then, the membrane potential was repolarized to −50 mV for 5 sec and the tail current amplitude was measured. The stimulation was given at a frequency of every 15 seconds, and the experiment was carried out at room temperature (22±2° C.) The compound was cumulatively administered to each cell in 4 concentrations, wherein the administration was done over 5 minutes in each concentration. The inhibition percentage of the inhibited current was calculated by comparing the current intensities before and after the compound was given in each concentration. According to Hill equation, each 50% inhibitory concentration was calculated (IC50 [μmol/L]). The test solutions used herein were as follows: extracellular solution (mmol/L): 2 CaCl2, 1 MgCl2, 10 HEPES, 4 KCl, 145 NaCl, 10 glucose,
intracellular solution (mmol/L): […], 1.8 MgCl2, 10 HEPES, 31 KOH, 10 EGTA, 120 KCl, 4 ATP

human α7 nAChR = molecular target: T2, human α7 nAChR (Homo sapiens, UniProt P36544); test: Evaluation of PAM activity with human α7 nACh receptor stably expressing cells (aequorin luminescence, FDSS7000); type: cell-based; details: test compound 10 μmol/L, ACh added at EC20, ratio of RLU (Max-Min) of test wells to control wells; for activity at 10 µM: read-out: α7PAM (%) @ 10 μmol/L
T2 construct: expressed in transfected cells; host or cells: GH4C1 cells derived from rat pituitary (ATCC CCL-82.2)
T2 sequence (P36544 23-502): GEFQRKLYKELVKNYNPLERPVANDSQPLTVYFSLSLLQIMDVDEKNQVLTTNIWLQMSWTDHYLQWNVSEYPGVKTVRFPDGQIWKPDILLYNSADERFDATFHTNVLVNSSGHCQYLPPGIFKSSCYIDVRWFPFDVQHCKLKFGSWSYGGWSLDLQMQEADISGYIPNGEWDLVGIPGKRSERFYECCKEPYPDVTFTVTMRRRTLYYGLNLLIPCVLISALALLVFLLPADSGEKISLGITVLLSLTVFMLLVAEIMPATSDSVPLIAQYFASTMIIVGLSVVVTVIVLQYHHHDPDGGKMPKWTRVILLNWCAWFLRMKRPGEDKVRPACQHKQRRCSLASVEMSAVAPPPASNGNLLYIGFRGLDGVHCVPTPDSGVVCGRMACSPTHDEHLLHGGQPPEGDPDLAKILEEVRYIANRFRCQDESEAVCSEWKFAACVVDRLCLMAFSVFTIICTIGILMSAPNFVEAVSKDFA
How it was run: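 Rat pituitary GH4C1 cells stably expressing human α7 nAChR and aequorin, loaded 4 h at room temperature with 4 μmol/L substrate, in Hanks/20 mM HEPES pH 7.4. After compound then ACh addition, 465 nm luminescence recorded 138 s; PAM activity is RLU (Max-Min) ratio to control wells.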

SMILES: CCc1cccc2c1cnn2C1CCN(C(=O)N[C@H]2CC[C@H](OC)CC2)CC1 [Example 66, 4-(4-ethyl-1H-indazol-1-yl)-N-(trans-4-methoxycyclohexyl)piperidine-1-carboxamide]
dose at which efficacy was shown (Slc: ddY mice): 1 mg/kg
activity at 10 µM (human α7 nAChR): 466%

SMILES: CO[C@H]1CC[C@H](NC(=O)N2CCC(n3ncc4cc(C5CC5)ccc43)CC2)CC1 [Example 74, 4-(5-cyclopropyl-1H-indazol-1-yl)-N-(trans-4-methoxycyclohexyl)piperidine-1-carboxamide]
minimum effective dose (Slc: ddY mice): 0.1 mg/kg
efficacy at higher doses (Slc: ddY mice): efficacy did not decrease
dose from which cognitive function was significantly improved (Slc: Wistar rats): 0.3 mg/kg
IC50 [3]: 13.2 µM

SMILES: O=C(NC1CCOCC1)N1CCC(n2ncc3cc(OC(F)(F)F)ccc32)CC1 [Example 227, N-(tetrahydro-2H-pyran-4-yl)-4-[5-(trifluoromethoxy)-1H-indazol-1-yl]piperidine-1-carboxamide]
Kp [2]: 1.92
bioavailability (Rat PK test): 69%
activity at 10 µM (human α7 nAChR): 768%

SMILES: COc1nn(C2CCN(C(=O)NC3CCCCC3)CC2)c2ccc(C)cc12 [Example 258]
concentration ratio of the brain to the plasma [2]: 1.55
α7PAM (%) @ 10 μmol/L (human α7 nAChR): 941%
IC50 [3]: 47.3 µM

SMILES: O=C(NC1CCC1)N1CCC(n2ncc3cc(OC(F)(F)F)ccc32)CC1 [Example 299]
α7PAM (%) @ 10 μmol/L (human α7 nAChR): 302%

SMILES: O=C(NC1CCCOC1)N1CCC(n2ncc3cc(OC(F)(F)F)ccc32)CC1 (stereo not shown) [Example 300, N-(tetrahydro-2H-pyran-3-yl)-4-[5-(trifluoromethoxy)-1H-indazol-1-yl]piperidine-1-carboxamide]
activity at 10 µM (human α7 nAChR): 376%

SMILES: COc1c(C2CC2)ccc2c1cnn2C1CCN(C(=O)NC2CCOCC2)CC1 [Example 303]
α7PAM (%) @ 10 μmol/L (human α7 nAChR): 1058%

SMILES: O=C(NC1CCOCC1)N1CCC(n2ncc3c(OC(F)(F)F)cccc32)CC1 [Example 304]
α7PAM (%) @ 10 μmol/L (human α7 nAChR): 380%

SMILES: COc1ccc2c(cnn2C2CCN(C(=O)NC3CCC(F)(F)CC3)CC2)c1OC [Example 305]
α7PAM (%) @ 10 μmol/L (human α7 nAChR): 729%

SMILES: COc1ccc2c(cnn2C2CCN(C(=O)N[C@H]3CC[C@H](OC)CC3)CC2)c1OC [Example 306]
α7PAM (%) @ 10 μmol/L (human α7 nAChR): 147%

SMILES: [2H]C([2H])([2H])O[C@H]1CC[C@H](NC(=O)N2CCC(n3ncc4c(CC)cccc43)CC2)CC1 [Example 307]
α7PAM (%) @ 10 μmol/L (human α7 nAChR): 464%

SMILES: [2H]C([2H])([2H])O[C@H]1CC[C@H](NC(=O)N2CCC(n3ncc4cc(C([2H])([2H])[2H])ccc43)CC2)CC1 [Example 308]
α7PAM (%) @ 10 μmol/L (human α7 nAChR): 1021%

SMILES: [2H]C([2H])([2H])Oc1nn(C2CCN(C(=O)NC3CCOCC3)CC2)c2ccc(C(F)(F)F)cc12 [Example 309]
α7PAM (%) @ 10 μmol/L (human α7 nAChR): 406%

SMILES: [2H]C([2H])([2H])Oc1nn(C2CCN(C(=O)NC3CCC(F)(F)CC3)CC2)c2ccc(C(F)(F)F)cc12 [Example 310]
α7PAM (%) @ 10 μmol/L (human α7 nAChR): 134%

SMILES: [2H]C([2H])([2H])c1ccc2c(cnn2C2CCN(C(=O)NC3CCC(F)(F)CC3)CC2)c1 [Example 311]
α7PAM (%) @ 10 μmol/L (human α7 nAChR): 1393%

SMILES: [2H]C([2H])([2H])c1ccc2c(cnn2C2CCN(C(=O)NC3CCC(OCC)CC3)CC2)c1 (stereo not shown) [Example 314]
α7PAM (%) @ 10 μmol/L (human α7 nAChR): 949%

SMILES: [2H]C([2H])([2H])O[C@H]1CC[C@H](NC(=O)N2CCC(n3nc(C4CCOCC4)c4cc(C)ccc43)CC2)CC1 [Example 316]
α7PAM (%) @ 10 μmol/L (human α7 nAChR): 807%

SMILES: [2H]C([2H])([2H])O[C@H]1CC[C@H](NC(=O)N2CCC(n3ncc4c(OC)c(CC)ccc43)CC2)CC1 [Example 318]
α7PAM (%) @ 10 μmol/L (human α7 nAChR): 1084%

SMILES: [2H]C([2H])([2H])O[C@H]1CC[C@H](NC(=O)N2CCC(n3ncc4cc(OC5CC5)ccc43)CC2)CC1 [Example 322]
α7PAM (%) @ 10 μmol/L (human α7 nAChR): 639%

Further lines, with some results ahead:

protein binding ratio in the brain ([1]; brain): 91.9%
protein binding ratio in the plasma ([1]; plasma): 84.7%
Kp [2]: 1.27
bioavailability (Rat PK test): 41%
SMILES: CO[C@H]1CC[C@H](NC(=O)N2CCC(n3ncc4cc(C)ccc43)CC2)CC1 [Example 1, N-(trans-4-methoxycyclohexyl)-4-(5-methyl-1H-indazol-1-yl)piperidine-1-carboxamide]
minimum effective dose (Slc: ddY mice): 0.1 mg/kg
efficacy at higher doses (Slc: ddY mice): efficacy did not decrease
dose from which cognitive function was significantly improved (Slc: Wistar rats): 0.3 mg/kg
IC50 [3]: 84.3 µM

activity at 10 µM (human α7 nAChR): 358%
SMILES: CCc1ccc2c(c1)c(OC(C)C)nn2C1CCN(C(=O)NC2CCOCC2)CC1 [Example 63, 4-(5-ethyl-3-isopropoxy-1H-indazol-1-yl)-N-(tetrahydro-2H-pyran-4-yl)piperidine-1-carboxamide]
dose at which efficacy was shown (Slc: ddY mice): 3 mg/kg
dose from which a tendency to improve cognitive function was shown (Slc: Wistar rats): 0.3 mg/kg
IC50 [3]: > 10 µM

Kp [2]: 2.01
bioavailability (Rat PK test): 41%
activity at 10 µM (human α7 nAChR): 318%
SMILES: CO[C@H]1CC[C@H](NC(=O)N2CCC(n3ncc4cc(C(F)(F)F)ccc43)CC2)CC1 [Example 163, N-(trans-4-methoxycyclohexyl)-4-[5-(trifluoromethyl)-1H-indazol-1-yl]piperidine-1-carboxamide]

α7PAM (%) @ 10 μmol/L (human α7 nAChR): 825%
SMILES: [2H]C([2H])([2H])c1ccc2c(cnn2C2CCN(C(=O)NC3CCCC3)CC2)c1 [Example 315]

α7PAM (%) @ 10 μmol/L (human α7 nAChR): 360%
SMILES: COc1c(C(F)(F)F)ccc2c1cnn2C1CCN(C(=O)NC2CCC(OC)CC2)CC1 (stereo not shown) [Example 317]

α7PAM (%) @ 10 μmol/L (human α7 nAChR): 1337%
SMILES: [2H]C([2H])([2H])Oc1ccc2c(cnn2C2CCN(C(=O)NC3CCC(F)(F)CC3)CC2)c1 [Example 319]

α7PAM (%) @ 10 μmol/L (human α7 nAChR): 886%
SMILES: [2H]C([2H])([2H])Oc1c(C2CC2)ccc2c1cnn2C1CCN(C(=O)NC2CCOCC2)CC1 [Example 323]

α7PAM (%) @ 10 μmol/L (human α7 nAChR): 1352%
SMILES: [2H]C([2H])([2H])Oc1ccc2c(cnn2C2CCN(C(=O)NC3CCCCC3)CC2)c1 [Example 324]

α7PAM (%) @ 10 μmol/L (human α7 nAChR): 997%
SMILES: [2H]C([2H])([2H])O[C@H]1CC[C@H](NC(=O)N2CCC(n3ncc4cc(CC)ccc43)CC2)CC1 [Example 325]

α7PAM (%) @ 10 μmol/L (human α7 nAChR): 1251%
SMILES: [2H]C([2H])([2H])O[C@H]1CC[C@H](NC(=O)N2CCC(n3ncc4cc(OC(F)F)ccc43)CC2)CC1 [Example 326]
